PMC6271227, “Biopharmaceutical Profiling of New Antitumor Pyrazole Derivatives” (Molecules, 2014)

Key:
[1] = Analysis by the general solubility equation (GSE): logP and melting point; format: physicochemical; conditions: Mp >200 °C, moderate lipophilicity
Description: The general solubility equation (GSE) developed by Jain et al. provides a quantitative relationship between the three parameters: log Sw = 0.5 − 0.01(Mp − 25) − log P(1)
Starting from the general solubility equation, the poorly soluble drugs were sub-classified by the group of Bergström et al. in two types of molecules: “grease ball” and “brick dust” molecules. […] These compounds cannot form bonds with water molecules, and therefore their solubility is limited by the solvation process. By contrast, “brick dust” molecules are usually compounds with rather rigid and flat molecules with a high melting point (>190 °C) and moderate lipophilicity. Their solubility is being solid-state-limited being mainly restricted by the inability of the compound to dissociate from the crystal lattice and can generally be improved by different methods involving a disruption of the stable crystal lattice.

NCI 60 cancer lines = system: NCI 60 cancer lines; set-up: method as in PMID 20728965; conditions: cited from earlier work
[2] = the 43 lines with logCI50 under −4

type of poorly soluble molecule (grease ball / brick dust) [1]	SMILES	number of the NCI 60 cancer lines with logCI50 under −4 (NCI 60 cancer lines)	logCI50 average (NCI 60 cancer lines; [2])	logCI50 values (range) (NCI 60 cancer lines; [2])
brick dust	Cc1cc(NC(=S)NC(=O)c2ccc(Cl)cc2)n[nH]1 [BC2]	–	–	–
brick dust	Cc1ccc(C(=O)NC(=S)Nc2cc(C)[nH]n2)cc1 [BM2]	–	–	–
brick dust	Cc1ccc(C(=O)NC(=S)Nc2cc(C)nn2-c2ccccc2)cc1 [BM5]	–	–	–
brick dust	Cc1cc(NC(=S)NC(=O)c2ccccc2)n[nH]1 [BT2]	–	–	–
–	O=C(NC(=S)Nc1cc(-c2ccc(Br)cc2)n[nH]1)c1ccccc1 [N-benzoyl-N'-[3-(4-bromophenyl)-1H-pyrazol-5-yl]-thiourea]	43	−5.02	−4.12 to −5.75
